Test results from paper PMC8596838, “Xylose‐Configured Cyclophellitols as Selective Inhibitors for Glucocerebrosidase” (Chembiochem, 2021).
Where two headings read alike, the source gives them in different places.

Legend:
GBA = GBA (Danio rerio, UniProt E7EZM1); test: In vivo inhibition in zebrafish larvae, read out by cABPP with ABP 10, GBA; design: species or system zebrafish (Danio rerio); conditions: larvae exposed to 5 dpf, inhibitor in the medium, cABPP quantification
Excerpt: (§1) We further investigated the affinity of 1 and 2 towards β‐D‐glucosidases in living animals using zebrafish (Danio rerio) embryos, which express both GBA and GBA2. Following exposure for 5 days, fish larvae were sacrificed and lysed, and cABPP with ABP 10 was used to detect residual active β‐D‐glucosidase molecules in the lysates and for IC50 determination. […] Aziridine compound 2 is also selective against GBA over GBA2, albeit with a narrower selectivity window (Figure 6A–C). […]
(§2) Figure 6 In vivo inhibitory effect of β‐D‐xylo‐configured compounds on β‐glucosidases in zebrafish (Danio rerio) larvae. […] Fluorescently labeled proteins were visualized after SDS‐PAGE, only GBA and GBA2 were assessed in zebrafish larvae model. (B) Apparent IC50 values towards β‐glucosidases (GBA and GBA2) were determined by the fluorescence quantification based on cABPP results. […] (D) GlcSph levels in zebrafish larvae were determined as described in experiment section, n=2 replicates.
ABP labeling procedure: Glycosidases were labeled with excess fluorescent ABPs at optimum conditions. […] ABP‐emitted fluorescence was quantified using ImageQuant software (GE Healthcare, Chicago, IL, USA) and curve‐fitted using Prism 8.0 (GraphPad Software). After fluorescence scanning, SDS‐PAGE gels were stained for total protein with Coomassie G250 and scanned on a ChemiDoc MP imager (Bio‐Rad, Hercules, CA, USA).[25] […]

GBA2 = GBA2 (Danio rerio, UniProt E7F5W0); test: In vivo inhibition in zebrafish larvae, read out by cABPP with ABP 10, GBA2; design: species or system zebrafish (Danio rerio)
Excerpt: We further investigated the affinity of 1 and 2 towards β‐D‐glucosidases in living animals using zebrafish (Danio rerio) embryos, which express both GBA and GBA2. Following exposure for 5 days, fish larvae were sacrificed and lysed, and cABPP with ABP 10 was used to detect residual active β‐D‐glucosidase molecules in the lysates and for IC50 determination. […] Aziridine compound 2 is also selective against GBA over GBA2, albeit with a narrower selectivity window (Figure 6A–C). We noted that the apparent IC50 in zebrafish embryo is much […] than the observed in intact cells despite the longer incubation time, which could be a result of poorer bioavailability of the cyclophellitol‐related structures in whole animal, as noted earlier by us.[36]
Figure 6 In vivo inhibitory effect of β‐D‐xylo‐configured compounds on β‐glucosidases in zebrafish (Danio rerio) larvae. (A) Larvae were exposed to 5 dpf with the indicated inhibitor 1 or 2 in the medium. Larvae were lysed and incubated with fluorescent ABP 10. Fluorescently labeled proteins were visualized after SDS‐PAGE, only GBA and GBA2 were assessed in zebrafish larvae model. (B) Apparent IC50 values towards β‐glucosidases (GBA and GBA2) were determined by the fluorescence quantification based on cABPP results. (C) In vivo inhibition curves. (D) GlcSph levels in zebrafish larvae were determined as described in experiment section, n=2 replicates.
ABP labeling procedure: Glycosidases were labeled with excess fluorescent ABPs at optimum conditions. ABP labeling was performed at 37 °C for 30 min for all materials (if not otherwise stated), in a total sample volume of 20–40 μL and 0.5–1 % DMSO concentration. GBA was labeled with 200 nM ABP 9 (pH 5.2, 0.1 % (v/v) Triton‐100, 0.2 % (w/v) sodium taurocholate), or labeled together with GBA2 using 200 nM β‐D‐glucose‐configured aziridine ABP 10 at pH 5.8, or labeling together with GBA2 and GBA3 using 200 nM β‐D‐glucose‐configured aziridine ABP 10 at pH 6.0. After ABP incubation, proteins were denatured by boiling the samples with 5× Laemmli buffer (50 % (v/v) 1 M Tris‐HCl, pH 6.8, 50 % (v/v) 100 % glycerol, 10 % (w/v) DTT, 10 % (w/v) SDS, 0.01 % (w/v) bromophenol blue) for 5 min at 98 °C, and separated by electrophoresis on 10 % (w/v) SDS‐PAGE gels running continuously at 90 V. Wet slab‐gels were scanned on fluorescence using the Typhoon FLA 9500 (GE Healthcare) at λEX 473 nm and λEM≥510 nm for green fluorescent ABP 8; and at λEX 635 nm and λEM≥665 nm for ABP 6, 9 and 10. ABP‐emitted fluorescence was quantified using ImageQuant software (GE Healthcare, Chicago, IL, USA) and curve‐fitted using Prism 8.0 (GraphPad Software). After fluorescence scanning, SDS‐PAGE gels were stained for total protein with Coomassie G250 and scanned on a ChemiDoc MP imager (Bio‐Rad, Hercules, CA, USA).[25]
Inhibition of enzymes in zebrafish larvae: Experiments were performed with 5 dpf larvae. For inhibitor treatment, a single fertilized embryo was seeded in a well of a 96‐wells plate, and exposed to 200 μL corresponding inhibitor for 115 hours at 28.5 °C. Per condition, n=24 embryos were used. At 115 hours (5 dpf), larvae were collected, rinsed three times with egg water, fully aspirated, snap‐frozen in liquid nitrogen and stored at −80 °C until homogenization in 96 μL 25 mM potassium phosphate buffer per 24 individuals. Lysis was conducted by sonication with a Polytron PT 1300D sonicator (Kinematica, Luzern, Switzerland) on ice at 20 % power for three seconds, and repeated three times. […]

[1] = test system: glucosylsphingosine (GlcSph); test: GlcSph levels in inhibitor treated zebrafish larvae (LC-MS); type: in vivo, zebrafish (Danio rerio); conditions: treated 103 hours from 8 hpf, n=2
Excerpt: as §1, §2
Sphingolipid extraction and analysis by mass spectrometry in inhibitor treated zebrafish larvae: Zebrafish embryos at 8 hours post fertilization (hpf) were seeded in 96‐well plates (1 fish embryo/ well, 200 μL egg water/well) and treated with corresponding inhibitors in different concentration for 103 hours at 28.5 °C. […] Lipids were extracted and measured according to methods described previously.[48] […]

[2] = molecular target: T1, rhGBA (recombinant human GBA, Imiglucerase) (Homo sapiens, UniProt P04062, R534H); test: Fluorogenic substrate (4-MU-β-D-glucoside) enzymatic assay, rhGBA; type: biochemical; conditions: for IC50: enzymatic assay performed for 3 h, n=3, read-out: In vitro apparent IC50 rhGBA, 3 h
T1 construct: purchased Sanofi Genzyme (Cambridge, MA, USA)
T1 sequence (P04062 40-536 R534H): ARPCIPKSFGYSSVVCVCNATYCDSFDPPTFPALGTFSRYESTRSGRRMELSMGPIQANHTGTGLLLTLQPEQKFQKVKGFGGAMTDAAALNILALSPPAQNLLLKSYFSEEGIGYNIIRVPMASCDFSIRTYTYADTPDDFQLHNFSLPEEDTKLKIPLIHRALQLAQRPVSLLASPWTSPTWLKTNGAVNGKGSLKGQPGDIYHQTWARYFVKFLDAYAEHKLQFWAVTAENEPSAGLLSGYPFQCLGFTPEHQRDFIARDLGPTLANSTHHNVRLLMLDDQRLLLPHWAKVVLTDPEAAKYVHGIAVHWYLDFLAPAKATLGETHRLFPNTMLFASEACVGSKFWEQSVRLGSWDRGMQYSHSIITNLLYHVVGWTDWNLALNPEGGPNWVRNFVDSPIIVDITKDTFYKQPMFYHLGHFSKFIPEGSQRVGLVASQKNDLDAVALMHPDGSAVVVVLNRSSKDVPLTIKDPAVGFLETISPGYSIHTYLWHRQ

[3] = IC50 ratio, zebrafish larvae 5 dpf

Chain of GBA2 (E7F5W0 entry or part of it): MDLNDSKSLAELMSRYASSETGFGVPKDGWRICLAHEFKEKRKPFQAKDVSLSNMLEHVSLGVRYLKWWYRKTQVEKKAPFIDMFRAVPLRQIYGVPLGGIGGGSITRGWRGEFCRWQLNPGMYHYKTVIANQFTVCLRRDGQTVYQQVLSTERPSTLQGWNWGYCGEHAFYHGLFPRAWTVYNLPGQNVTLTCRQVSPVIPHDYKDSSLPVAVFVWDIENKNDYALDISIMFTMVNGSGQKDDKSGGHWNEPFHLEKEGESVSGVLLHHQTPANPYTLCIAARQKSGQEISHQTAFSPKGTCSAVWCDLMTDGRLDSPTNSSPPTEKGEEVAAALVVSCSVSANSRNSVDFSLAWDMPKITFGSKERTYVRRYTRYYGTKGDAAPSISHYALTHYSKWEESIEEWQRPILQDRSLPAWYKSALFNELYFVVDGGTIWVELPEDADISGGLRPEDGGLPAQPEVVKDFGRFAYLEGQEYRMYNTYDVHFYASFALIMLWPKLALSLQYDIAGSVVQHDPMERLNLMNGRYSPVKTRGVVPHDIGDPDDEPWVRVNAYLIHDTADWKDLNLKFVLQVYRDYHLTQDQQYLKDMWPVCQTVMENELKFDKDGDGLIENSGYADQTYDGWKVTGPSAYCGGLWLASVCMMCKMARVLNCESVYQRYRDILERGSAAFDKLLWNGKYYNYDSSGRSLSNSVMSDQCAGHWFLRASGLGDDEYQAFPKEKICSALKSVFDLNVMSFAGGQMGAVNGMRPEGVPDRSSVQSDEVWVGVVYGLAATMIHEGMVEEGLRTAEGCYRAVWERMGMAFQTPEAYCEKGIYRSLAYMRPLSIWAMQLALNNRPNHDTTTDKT
Chain of GBA (E7EZM1 entry or part of it): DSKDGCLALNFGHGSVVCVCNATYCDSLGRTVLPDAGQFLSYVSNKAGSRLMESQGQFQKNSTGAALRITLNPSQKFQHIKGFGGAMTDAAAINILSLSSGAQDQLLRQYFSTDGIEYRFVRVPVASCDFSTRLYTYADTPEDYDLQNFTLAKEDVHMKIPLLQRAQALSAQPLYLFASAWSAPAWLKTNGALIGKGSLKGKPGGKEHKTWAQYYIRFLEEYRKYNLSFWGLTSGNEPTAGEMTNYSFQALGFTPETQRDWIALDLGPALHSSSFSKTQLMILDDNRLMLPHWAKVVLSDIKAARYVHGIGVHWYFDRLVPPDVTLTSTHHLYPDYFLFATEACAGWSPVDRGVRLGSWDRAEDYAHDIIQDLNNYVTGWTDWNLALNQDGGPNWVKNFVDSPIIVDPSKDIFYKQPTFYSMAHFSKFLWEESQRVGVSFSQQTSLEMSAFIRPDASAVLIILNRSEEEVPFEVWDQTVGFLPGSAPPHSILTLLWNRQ

Structure (SMILES)	IC50 (GBA)	GBA2/GBA ratio, zebrafish larvae (GBA2; [3])	IC50 (GBA2; read-out: Zebrafish larvae IC50 GBA2; larvae exposed to 5 dpf, inhibitor in the medium, cABPP quantification)	GlcSph levels in zebrafish embryos [1]	IC50 [2]	increase in inhibitory activity towards GBA of aziridines relative to epoxide analogues ([2]; in vitro 3 h)	effect on ABP labelling of GBA2 in zebrafish at 150 μM (GBA2; 150 μM, exposure for 5 days)	IC50 (GBA2; larvae exposed to 5 dpf, inhibitor in the medium, cABPP quantification; read-out: Zebrafish larvae IC50 GBA2)
O[C@@H]1[C@@H](O)[C@H](O)C[C@H]2N[C@@H]12 [compound 2, β‐D‐xylo‐Cyclophellitol aziridine]	6.99 µM	21	150 µM	increased levels of GlcSph	0.24 ± 0.03 µM	less than two‐fold increase		
O[C@@H]1[C@@H](O)[C@H](O)C[C@H]2O[C@@H]12 [compound 1, xylo‐cyclophellitol]	3.01 µM	> 50		increased levels of GlcSph	0.45 ± 0.02 µM		without targeting GBA2	> 150 µM
